Results as given in US10919887B2, “Salts and solid forms of a monobactam antibiotic” (Novartis AG, priority 2015, dated 2021).
Values after ≈ are worked out from the molar mass of the structure shown.

Legend:
[1] = Stability of solid forms as relative humidity is varied; assay type: physicochemical
Method: This material is referred to herein as Form 5.
Water (20 mL) and THF (40 mL) were mixed in a flask, and Compound X (10 g, ca. 91% pure by HPLC) was added with stirring at 25° C. to provide a clear yellow solution. A 20 mg sample of Form 5 (see above) was added as a seed, and the mixture was stirred for 50 mins. THF (140 mL) was then added slowly, over 1 hr and the mixture was stirred for 2 hr more. The suspension was filtered, and the wet cake was washed with cold (<5° C.) water, then dried at 20-25° C. for 11 hrs at 100 mbar pressure, providing 6.6 g of Form 5 trihydrate that was 97.8% pure by HPLC. It appears stable when stored at 25-50% relative humidity, preferably 30-40% RH; at lower or higher relative humidity, it may evolve to different hydrated states as described herein.
Compound X of Form 1 (anhydrate) was exposed to 43% relative humidity for one day or more. The crystalline product appears to be a sesquihydrate (Compound X-1.5 H2O) based on water content determination. Note that Form 5, the trihydrate, under similar conditions would be stable, yet when starting with the anhydrate, it appears to equilibrate as a sequihdyrate under these conditions and remains in that form for at least 14 days when kept at the same relative humidity. This crystalline form produces the XRPD spectrum shown in FIG. 11, and is referred to herein as Form 10. The table below summarizes the main peaks in the XRPD of this sample.
Compound X of Form 5, the trihydrate, was exposed to relative humidity of 22% for about 3 days to provide a crystalline solid characterized as a dihydrate (Compound X-2H2O) based on water content analysis. […] The dihydrate, referred to herein as Form 11, produced the XRPD spectrum shown in FIG. 12: the main peaks in that XRPD spectrum are listed in the following table.
Compound X of Form 5 was exposed to air with a relative humidity of 65% for about 3 days, providing a crystalline material characterized as a tetra-hydrate based on water content analysis. […] The tetrahydrate, referred to herein as Form 12, produced the XRPD spectrum shown in FIG. 13: the main peaks in that XRPD spectrum are listed in the following table.
Note that at 92% relative humidity, Compound X appears to be a mixture of a crystal form characterized as hexahydrate mixed with the tetrahydrate of Form 12. By comparison, the anhydrate (Form 1) preferentially converts to a sesquihydrate as the relative humidity is increased to 43%, and evolves to trihydrate and tetrahydrate at higher relative humidities.

[2] = Stability of Compound X and its salts in aqueous solution; assay type: physicochemical; conditions: salts made with 1.0 or 2.0 equiv. base, lyophilized; for aqueous media for intravenous use
Source text: It is important for a drug product to be stable enough to avoid significant degradation when it is shipped and stored under commercially practical conditions. The inventors have discovered that Compound X in solution is preferably used and stored at a pH between 4 and 6, preferably between 4.0 and 5.5, for maximum stability in the presence of moisture. Optimal solution stability is achieved at a pH of about 4.0 to 5.5 Accordingly, the invention provides pharmaceutical compositions comprising Compound X at a pH between 4 and 6, preferably between 4.0 and 5.5, and more preferably at a pH of about 5±0.5 or at pH of 5±0.2. Suitable compositions comprise Compound X in an aqueous solution, such as a dextrose or saline solution, which may be isotonic, and may contain other substances such as stabilizers, antioxidants, buffers or pH modifiers, nutrients, and the like. In some of these embodiments, the desired pH is achieved by combining Compound X and a pH modifier suitable to achieve the desired pH in an aqueous solution. Suitable pH modifiers include but are not limited to sodium hydroxide, sodium carbonate, sodium bicarbonate, potassium carbonate, potassium hydroxide, amines such as TRIS (tris(hydroxymethyl)aminomethane), and amino acids such as arginine, lysine, histidine, and the like. Known monobactams, including aztreonam, have been formulated with arginine. […]

[3] = Stability testing of solid salts at 25° C. and 40° C., purity by HPLC; assay type: physicochemical; conditions: solid salt
Method: Salts of Compound X were prepared by adding a base (1.0 or 2.0 equiv.) to Compound X in water, and lyophilizing the solution. The solids thus obtained appear to be amorphous by XRPD. In this manner, formation of salts of Compound X were attempted with sodium hydroxide, (L)-lysine, (L)-arginine, calcium hydroxide, meglumine, and magnesium hydroxide.
Samples of the disodium salt and the di-(L)-arginine salt as solids were subjected to stability testing at 25° C. and 40° C. The sample of sodium salt was 97.2% pure by HPLC initially, and after 6 weeks at 25° C., it was still 96.2% pure. The same material held at 40° C. was 94.8% pure after 3 weeks, and 93.6% pure after 6 weeks. Significant impurities that appear or increase during the study appear at relative retention times (RRT) 0.34 and 1.11 (with Compound X defined as RRT=1).
The arginine salt was 97.3% pure by HPLC initially, and was 96.3% pure after 6 weeks at 25° C. At 40° C., its purity dropped to 95.1% after 3 weeks and 94.2% after 6 weeks. Significant impurities that appear or increase during this study appear at relative retention times (RRT) 1.09, 1.11 and 1.13 (with Compound X defined as RRT=1). The HPLC traces for the samples from these stability studies after 6 weeks at 25° C. and 40° C. respectively are shown in FIGS. 10 and 11. The lower trace in each Figure is a sample used to measure the limit of quantitation (LOQ); the next trace above that represents the sample of Compound X used for salt formation; the next trace above that one is for the arginine salt after 6 weeks; and the next (top) trace is for the sodium salt after 6 weeks.
HPLC Conditions for the stability studies (FIGS. 10 and 11):
Agilent 1290 system with UV detector at 260 nm
Acquity HSS T3 column, 100 mm×2.1 mm ID; 1.8 μm particle size (supplied by Waters)
• A: 0.05% TFA in water • B: 0.05% TFA in methanol Flow rate: 0.45 mL/min Gradient (A/B ratio): 97:3 for 8 minutes; 75:25 for 3 minutes; 0:100 for 1 minute

[4] = tested on: E. coli NB27273-CDY0026 (parent); test: MIC by broth microdilution, isogenic E. coli parent strain; assay type: cell-based; conditions: Escherichia coli, read-out: Strain 1 MIC
Method: Bacterial isolates were cultivated from −70° C. frozen stocks by two consecutive overnight passages at 35° C. in ambient air on 5% blood agar (Remel, Lenexa, Kans.). Quality control and P. aeruginosa ATCC 27853) is from the American Type Culture Collection (ATCC; Rockville, Md.) and PAO1 was received from Dr. K. Poole.
Strain NB27273 (BW25113 pspB::Km^r) was obtained from the Keio transposon insertion collection. The strain has the pspB gene replaced by a kanamycin resistance marker (BW25113 pspB::Km^r). This strain was cured of the transposon in pspB via FLP recombinase using published methodology. The resulting strain, BW25113 pspB, was used as a host for multicopy vectors expressing key β-lactamases. Multicopy plasmids directing constitutive expression of β-lactamases were established as follows: Synthetic, codon optimized genes encoding E. coli KPC2 and SHV12-lactamases were made by DNA2.0 (Palo Alto, Calif.). Each of the synthetic fragments were designed to contain NotI and NcoI restriction sites at their termini, allowing ligation into a NotI/NcoI digested pET28a(+) derivative for protein expression. […]

SMILES: Nc1nc(/C(=N/OC2(C(=O)O)CC2)C(=O)N[C@@H]2C(=O)N(S(=O)(=O)O)[C@@H]2CN2CCOC2=O)cs1 [Form 5]
- form change at high relative humidity ([1]; RH above 80%): converts to Form 4 within a day
- relative humidity at which the form appears stable when stored ([1]; storage of Form 5 trihydrate): 25-50%

SMILES: Nc1nc(/C(=N/OC2(C(=O)O)CC2)C(=O)N[C@@H]2C(=O)N(S(=O)(=O)O)[C@@H]2CN2CCOC2=O)cs1 [Form 10]
- time the form remains unchanged ([1]; kept at 43% relative humidity): at least 14 days

SMILES: Nc1nc(/C(=N/OC2(C(=O)O)CC2)C(=O)N[C@@H]2C(=O)N(S(=O)(=O)O)[C@@H]2CN2CCOC2=O)cs1 [Form 12]
- form change when relative humidity is reduced ([1]; relative humidity reduced to about 40%): readily reverts to the trihydrate (Form 5)

SMILES: N=C(N)NCCC[C@H](N)C(=O)O.N=C(N)NCCC[C@H](N)C(=O)O.Nc1nc(/C(=N/OC2(C(=O)O)CC2)C(=O)N[C@@H]2C(=O)N(S(=O)(=O)O)[C@@H]2CN2CCOC2=O)cs1 [arginine salt]
- stability of salts [2]: particularly stable
- purity by HPLC ([3]; after 3 weeks at 40° C.): 95.1%
- purity by HPLC ([3]; after 6 weeks at 25° C.): 96.3%
- purity by HPLC ([3]; after 6 weeks at 40° C.): 94.2%
- purity by HPLC ([3]; initially): 97.3%

SMILES: C[C@H]1[C@H](NC(=O)/C(=N\OC(C)(C)C(=O)O)c2csc(N)n2)C(=O)N1S(=O)(=O)O [compound 1]
- MIC [4]: 0.125 mg/L (≈ 0.287 µM)
